{
  "source": "patent US12576103B2",
  "about": "(priority 2020, dated 2026)",
  "key": {"[1]": {"system": "ciliary motility", "details": "cited from earlier work"}, "[2]": {"system": "SARS-COV-2", "test": "microbe, parasite or virus in culture", "type": "cell-based", "details": "for SARS-CoV-2 infectivity of VERO cells: at concentrations which were not cytotoxic"}, "[3]": {"system": "VERO cells", "test": "Non-virus related cytotoxicity in VERO cells by light microscopy", "type": "cell-based", "details": "at the inhibiting concentrations (LMWH 125 μM, N-acetylcysteine 25 mM)", "method": "For experiments in which infectivity was being tested, either VERO cells in media or SARS-COV-2 viral particles were incubated with potential inhibitors for one hour. Then viral particles were added to VERO cells and incubation continued for up to seven days. Cytotoxicity and viral-induced cytopathological effects were examined by light microscopy.\nIn order to test if AT-H201 had antiviral activity against SARS-COV-2 the standard VERO cells assay was performed. Test compounds were incubated either with the virus, to simulate antibody-like surface binding, or with the cells, to simulate either cell surface changes or to act intracellularly. Serial dilutions were conducted and the cytopathic effect (CPE) was observed by microscopy. Non-virus related cytotoxicity, if present was also noted."}, "[4]": {"details": "aqueous solution at physiologic pH; cited from earlier work"}, "[5]": {"test": "Nebulized anticoagulants in preclinical models for lung injury", "type": "in vivo", "excerpt": "Nebulized anticoagulants attenuate pulmonary coagulopathy in preclinical studies using various models for lung injury. Effects on inflammation are less consistent."}, "[6]": {"system": "virus that contain PBSC sequences", "details": "in vitro; cited from earlier work"}, "[7]": {"test": "Nebulized heparin in patients with pulmonary infection or lung injury (Example 6)", "type": "in vivo", "excerpt": "Nebulized heparin also affects various physiologic parameters and other outcomes, in particular during pulmonary infection and inhalation trauma.\nReduction of pulmonary coagulopathy at dosages ≥400,000 U/day heparin is observed.\nA single dosage of nebulized heparin prior to cardiopulmonary bypass surgery decreases atelectasis and improves CO2 elimination directly after the operation. Nebulized heparin increases the number of ventilator-free days following administration."}, "[8]": {"details": "compared with controls", "excerpt": "Inhalation injury is a major cause of morbidity and mortality in patients with burns. Presence of airways injury adds to the need of fluid supplementation, increases risk of pulmonary complications. Due to many mechanisms involved in pathophysiology the treatment is complex. Among them the formation of fibrin casts inside airways constitutes a prominent element. The material residing in tracheobronchial tree causes ventilation-perfusion mismatch, complicates mechanical ventilation, provides a medium for bacterial growth. Inhaled anticoagulation regimens employing heparin in management of inhalation injury are tested. Simultaneously safety, especially in connection with possible bleeding risk, is measured.\nData are collected in patients receiving nebulized heparin and in historical controls. Data is analyzed separately with 1) all subjects included and 2) with subjects who died/were discharged on the ventilator excluded."}, "[9]": {"test": "Phase 1 clinical study of nebulized heparin in volunteers (Example 4)", "method": "This example describes the safety and efficacy of nebulized heparin and NAC in normal subjects. A Phase 1 clinical study of nebulized heparin is conducted to investigate the safety of increasing doses of a well-defined lower respiratory tract (LRT) dose of inhaled heparin with regard to pulmonary function and coagulation. Ten volunteers inhale heparin from Sidestream jet nebulizers loaded with 100,000, 200,000, 300,000 or 400,000 International Units (ID) of heparin."}, "[10]": {"details": "nebulized, presence of pulmonary infection or lung injury"}},
  "note": "Entries after “also recorded” stand apart in the source; their conditions may differ.",
  "data": [
    {"molecule": "2-alkyl-4-hydroxyquinolines [pyo compound]", "values": [
      {"measurement": "concentration producing ciliostasis / inhibiting ciliary motility", "setting": "[1]", "result": 50, "unit": "µg/mL"}
    ]},
    {"molecule": "CCN(CCO)CCCC(C)Nc1ccnc2cc(Cl)ccc12", "note": "(centres unmarked) [Hydroxychloroquine, hydroxychloroquine]", "values": [
      {"measurement": "inhibition at 16 µM", "setting": "[2]; Severe acute respiratory syndrome coronavirus 2, Vero, at 16 μM, incubation with cells, read-out: Inhibition of Virus Infection", "result": 100, "unit": "%"}
    ]},
    {"molecule": "CC(=O)N[C@@H](CS)C(=O)O", "note": "[NAC, N-acetylcysteine]", "values": [
      {"measurement": "inhibition at 25000 µM", "setting": "[2]; Severe acute respiratory syndrome coronavirus 2, Vero, at 25 mM, incubation with cells, read-out: Inhibition of Virus Infection", "result": 100, "unit": "%"},
      {"measurement": "inhibiting viral entry", "setting": "[2]; at 25 mM", "result": "effective"},
      {"measurement": "inhibition of infectivity", "setting": "[2]; at 25 mM, incubated with cells", "result": "completely inhibit"},
      {"measurement": "SARS-CoV-2 infectivity of VERO cells", "setting": "[2]", "result": "inhibited"},
      {"measurement": "inhibition of infectivity", "setting": "[2]; incubated with SARS-COV-2 (virus)", "result": "did not inhibit"},
      {"measurement": "Cytotoxicity", "setting": "[3]", "result": "not seen"}
    ]},
    {"molecule": "CCN(CC)/[N+]([O-])=N/O.CCNCC", "note": "[diethylamine/NO]", "values": [
      {"measurement": "rate of NO release", "setting": "[4]", "result": "< 3", "unit": "min"}
    ]},
    {"molecule": "NCCN(CCN)/[N+]([O-])=N/O", "note": "[diethylenetriamine/NO]", "values": [
      {"measurement": "rate of NO release", "setting": "[4]", "result": "approximately 20 hours"}
    ]},
    {"molecule": "danaparoid", "values": [
      {"measurement": "systemic coagulation", "setting": "[5]", "result": "reduce"}
    ]},
    {"molecule": "enoxaparin [LMWH]", "values": [
      {"measurement": "inhibition of SARS-COV-2 infectivity", "setting": "[2]; at 125 μM, SARS-COV-2 incubated with compound before VERO cell exposure", "result": "complete inhibition"},
      {"measurement": "inhibition of viral cytopathic effects / SARS-COV-2 infectivity", "setting": "[2]; at nanomolar concentrations, incubated with the virus or with the cells", "result": "completely inhibiting; also recorded: nanomolar efficacy"},
      {"measurement": "inhibition of infectivity", "setting": "[2]; either incubated with the virus or incubated with the cells", "result": "effective"},
      {"measurement": "Cytotoxicity", "setting": "[3]", "result": "not seen"}
    ]},
    {"molecule": "heparin", "values": [
      {"measurement": "infectivity of virus that contain PBSC sequences", "setting": "[6]", "result": "blocks infectivity"},
      {"measurement": "SARS-CoV-2 infectivity of VERO cells", "setting": "[2]", "result": "inhibited"},
      {"measurement": "systemic coagulation", "setting": "[5]", "result": "reduce"},
      {"measurement": "bleeding incidences", "setting": "[7]; at dosages ≥100,000 U", "result": "without affecting"},
      {"measurement": "dosages at which reduction of pulmonary coagulopathy is observed", "setting": "[7]; nebulized", "result": "≥ 400,000 U/day"},
      {"measurement": "dosages at which systemic coagulation is affected", "setting": "[7]; nebulized", "result": "≥ 100,000 U"},
      {"measurement": "mortality", "setting": "[7]; nebulized", "result": "does not increase"},
      {"measurement": "number of ventilator-free days", "setting": "[7]; nebulized", "result": "increases"},
      {"measurement": "physiological parameters, such as arterial oxygenation or pulmonary compliance", "setting": "[7]; nebulized", "result": "does not affect"},
      {"measurement": "systemic bleeding", "setting": "[7]; nebulized", "result": "does not cause; also recorded: does not result in differences"},
      {"measurement": "systemic coagulation", "setting": "[7]; nebulized", "result": "affects"},
      {"measurement": "anticoagulant effect in the lungs", "setting": "[7]; [10]", "result": "has an anticoagulant effect"},
      {"measurement": "pulmonary inflammation", "setting": "[7]; [10]", "result": "inhibits"},
      {"measurement": "atelectasis", "setting": "[7]; single nebulized dosage prior to cardiopulmonary bypass surgery", "result": "decreases"},
      {"measurement": "CO2 elimination", "setting": "[7]; single nebulized dosage prior to cardiopulmonary bypass surgery, directly after the operation", "result": "improves"},
      {"measurement": "28-day mortality", "setting": "[8]", "result": "no differences"},
      {"measurement": "hospitalization length", "setting": "[8]", "result": "no differences"},
      {"measurement": "lung injury score during the first 7 days post injury", "setting": "[8]", "result": "no differences"},
      {"measurement": "ventilator-associated pneumonia rate", "setting": "[8]", "result": "no differences"},
      {"measurement": "Peak anti-Xa activity", "setting": "[9]; 6 h after inhalation of 400,000 ID heparin", "result": 0.113, "unit": "ID/mL"},
      {"measurement": "APTT maximum", "setting": "[9]; 6 h after inhalation of 400,000 ID heparin (p=0.05)", "result": 1.03},
      {"measurement": "anti-Xa compared to baseline values", "setting": "[9]; after 200,000, 300,000, and 400,000 ID heparin", "result": "increases"},
      {"measurement": "safety of inhalation", "setting": "[9]; delivery of 32,000 IU to the lower respiratory tract", "result": "can safely be inhaled"},
      {"measurement": "area under the curve of the anti-Xa activity", "setting": "[9]; inhaled, 100,000-400,000 IU", "result": "increase with increasing doses"},
      {"measurement": "pulmonary function", "setting": "[9]; inhaled, 100,000-400,000 IU loaded in nebulizer", "result": "did not affect"}
    ]},
    {"molecule": "rhamnolipid", "values": [
      {"measurement": "effect of limited exposure of tracheal explants", "setting": "[1]; associated with altered ciliary membranes", "result": "ciliostasis"}
    ]}
  ]
}
